We go through 27 compounds from patent EP4562004B1, “NOVEL 7-SUBSTITUTED INDOLE SULFONAMIDE DERIVATIVES” (F. Hoffmann-La Roche AG, priority 2022, dated 2024).

The experiment addresses human GPR17 short isoform (Homo sapiens, UniProt Q13304). As to the kind of experiment: GPR17 cAMP assay (antagonist mode, TR-FRET cAMP detection). It counts as cell-based. Conditions: CHO-K1 cells stably expressing human GPR17 short isoform; with EC80 concentration of agonist MDL29,951, IBMX 0.5mM, forskolin 15µM; normalized to reference antagonist; read-out: hGPR17 cAMP IC50. The procedure:
CHO-K1 cells stably expressing vector containing untagged human GPR17 short isoform (Roche) were cultured at 37°C / 5% CO2 in DMEM (Dulbecco's Modified Eagle Medium):F-12 (1:1) supplemented with 10% foetal bovine serum and 400 µg/ml Geneticin.
Changes in intracellular cyclic adenosine monophosphate (cAMP) levels were quantified using the Nano-TRF Detection Assay kit (Roche Diagnostics, Cat. No. 05214386001). This assay allows for direct cAMP quantification in a homogeneous solution. cAMP is detected based on time-resolved fluorescence energy transfer (TR-FRET) and competitive binding of ruthenylated cAMP and endogenous cAMP to an anti-cAMP monoclonal antibody labeled with AlexaFluor-700. The Ruthenium complex serves as the FRET donor and transfers energy to AlexaFluor-700. The FRET signal is inversely proportional to the cAMP concentration.
CHO-GPR17S cells were detached with Accutase and resuspended in assay buffer consisting of Hank's Balanced Salt Solution (HBSS), 10mM HEPES (4-(2-hydroxyethyl) piperazine-1-ethanesulfonic acid solution) and 0.1% bovine serum albumin (pH 7.4). The cells were seeded in black 384-well plates (Corning) at a density of 10'000 cells / 20µl assay buffer until the addition of compounds.
Test antagonist compounds were serially diluted in dimethyl sulfoxide (DMSO) and spotted in 384-well plates. The compounds were then diluted in HBSS buffer supplemented with an EC80 concentration of MDL29,951 (3-(2-Carboxy-4,6-dichloroindol-3-yl)propionic acid) (GPR17 agonist) plus 3-Isobutyl-1-methylxanthine (IBMX) (0.5mM final concentration) and added to the cells at room temperature. Forskolin (15µM final concentration) was added 5 minutes after the test compounds and the cells were incubated at room temperature for 30 minutes. The assay was stopped by adding cAMP detection mix (containing detergents for cell lysis) for 90 minutes at room temperature.
Cellular cAMP was measured using a Paradigm reader (Molecular Devices). The raw data was used to calculate the FRET signal based on the assay's P-factor as per cAMP kit instructions. The data was normalized to the maximal activity of a reference antagonist and dose response curves were fitted to the percent activity of the test compounds using a sigmoidal dose response model (Genedata Screener).
Results in the hGPR17 cAMP assay are provided for compounds of formula I in Table 1 Table 1: […]
A general note: cAMP levels reflect the balance of adenylyl cyclase and phosphodiesterase activity.

human GPR17 short isoform, sequence (Q13304 29-367): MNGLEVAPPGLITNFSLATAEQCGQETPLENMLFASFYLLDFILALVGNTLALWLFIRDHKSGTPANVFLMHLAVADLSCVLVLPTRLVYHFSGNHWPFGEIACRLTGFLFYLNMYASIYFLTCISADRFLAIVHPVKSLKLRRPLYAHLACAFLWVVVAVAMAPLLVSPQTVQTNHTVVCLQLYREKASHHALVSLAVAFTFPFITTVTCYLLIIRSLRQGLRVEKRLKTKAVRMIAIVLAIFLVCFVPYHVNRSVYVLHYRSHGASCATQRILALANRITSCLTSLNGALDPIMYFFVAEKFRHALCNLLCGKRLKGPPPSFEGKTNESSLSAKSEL

On to `[2H]C([2H])(F)C([2H])([2H])Oc1c(OC)nc(NS(=O)(=O)c2c[nH]c3c(-n4cccn4)c(Br)ccc23)nc1OC` [Example 84, 6-bromo-N-[4,6-dimethoxy-5-(1,1,2,2-tetradeuterio-2-fluoro-ethoxy)pyrimidin-2-yl]-7-pyrazol-1-yl-1H-indole-3-sulfonamide], for which the IC50 (commonly the concentration that gives 50% inhibition) was found to be 0.026 µM.

In the case of `COc1nc(NS(=O)(=O)c2c[nH]c3c(-n4nccn4)c(Br)ccc23)nc(OC)c1OC(F)F` [Example 29, 6-bromo-N-[5-(difluoromethoxy)-4,6-dimethoxy-pyrimidin-2-yl]-7-(triazol-2-yl)-1H-indole-3-sulfonamide], the IC50 is 0.022 µM. The value for `COc1nc(NS(=O)(=O)c2c[nH]c3c(-n4cccn4)c(C(F)F)ccc23)nc(OC)c1OC(F)F` [Example 49, N-[5-(difluoromethoxy)-4,6-dimethoxy-pyrimidin-2-yl]-6-(difluoromethyl)-7-pyrazol-1-yl-1H-indole-3-sulfonamide] was 0.108 µM; that for `COc1nc(NS(=O)(=O)c2c[nH]c3c(-n4nccn4)c(Cl)ccc23)ncc1CC(F)F` [Example 78, 6-chloro-N-[5-(2,2-difluoroethyl)-4-methoxy-pyrimidin-2-yl]-7-(triazol-2-yl)-1H-indole-3-sulfonamide] was 0.055 µM. Take `COc1nc(NS(=O)(=O)c2c[nH]c3c(-n4cccn4)c(Br)ccc23)nc(OC)c1OC(F)F` [Example 77, 6-bromo-N-[5-(difluoromethoxy)-4,6-dimethoxy-pyrimidin-2-yl]-7-pyrazol-1-yl-1H-indole-3-sulfonamide]: the IC50 is 0.027 µM.

`COc1nc(NS(=O)(=O)c2c[nH]c3c(-n4nccn4)c(Cl)ccc23)nc(OC)c1CC(F)F` [Example 7, 6-chloro-N-[5-(2,2-difluoroethyl)-4,6-dimethoxy-pyrimidin-2-yl]-7-(triazol-2-yl)-1H-indole-3-sulfonamide]: the IC50 was 0.021 µM.

`[2H]C([2H])(c1cnc(NS(=O)(=O)c2c[nH]c3c(-n4nccn4)c(Cl)ccc23)nc1OC)C(F)F` [Example 79, 6-chloro-N-[5-(1,1-dideuterio-2,2-difluoroethyl)-4-methoxy-pyrimidin-2-yl]-7-(triazol-2-yl)-1H-indole-3-sulfonamide]: the IC50 was determined as 0.036 µM.

Turning to `COc1nc(NS(=O)(=O)c2c[nH]c3c(-n4nccn4)c(Br)ccc23)nc(OC)c1C1CC1C#N` (stereo not drawn) [Example 31, 6-bromo-N-[5-(2-cyanocyclopropyl)-4,6-dimethoxy-pyrimidin-2-yl]-7-(triazol-2-yl)-1H-indole-3-sulfonamide], the IC50 was 0.03 µM. In the case of `COc1nc(NS(=O)(=O)c2c[nH]c3c(-n4ccnc4)cccc23)nc(OC)c1CC(F)F` [Example 3, N-[5-(2,2-difluoroethyl)-4,6-dimethoxy-pyrimidin-2-yl]-7-imidazol-1-yl-1H-indole-3-sulfonamide] it was 0.3 µM; in that of `COc1nc(NS(=O)(=O)c2c[nH]c3c(-n4cc(F)cn4)c(Cl)ccc23)nc(OC)c1OCC(F)F` [Example 45, 6-chloro-N-[5-(2,2-difluoroethoxy)-4,6-dimethoxy-pyrimidin-2-yl]-7-(4-fluoropyrazol-1-yl)-1H-indole-3-sulfonamide], 0.025 µM. In the case of `COc1nc(NS(=O)(=O)c2c[nH]c3c(-n4cccn4)c(Cl)ccc23)ncc1CC(F)F` [Example 71, 6-chloro-N-[5-(2,2-difluoroethyl)-4-methoxy-pyrimidin-2-yl]-7-pyrazol-1-yl-1H-indole-3-sulfonamide] it was 0.063 µM; in that of `COc1nc(NS(=O)(=O)c2c[nH]c3c(-n4cccn4)c(Br)ccc23)nc(OC)c1OCCF` [Example 83, 6-bromo-N-[5-(2-fluoroethoxy)-4,6-dimethoxy-pyrimidin-2-yl]-7-pyrazol-1-yl-1H-indole-3-sulfonamide], 0.036 µM. Regarding `[2H]C([2H])(Oc1c(OC)nc(NS(=O)(=O)c2c[nH]c3c(-n4nccn4)c(Cl)ccc23)nc1OC)C(F)F` [Example 59, 6-chloro-N-[5-(1,1-dideuterio-2,2-difluoro-ethoxy)-4,6-dimethoxy-pyrimidin-2-yl]-7-(triazol-2-yl)-1H-indole-3-sulfonamide], the IC50 was found to be 0.074 µM.

On to `COc1nc(NS(=O)(=O)c2c[nH]c3c(-n4cccn4)c(Cl)ccc23)nc(OC)c1C1CC1C#N` (stereo not drawn) [Example 73, 6-chloro-N-[5-(2-cyanocyclopropyl)-4,6-dimethoxy-pyrimidin-2-yl]-7-pyrazol-1-yl-1H-indole-3-sulfonamide], for which the IC50 came to 0.041 µM. The value for `COc1nc(NS(=O)(=O)c2c[nH]c3c(-n4nccn4)c(Cl)ccc23)nc(OC)c1Br` [Example 63, N-(5-bromo-4,6-dimethoxy-pyrimidin-2-yl)-6-chloro-7-(triazol-2-yl)-1H-indole-3-sulfonamide] was 0.037 µM; that for `COc1nc(NS(=O)(=O)c2c[nH]c3c(-n4cccn4)c(Br)ccc23)nc(OC)c1OCC(F)F` [Example 75, 6-bromo-N-[5-(2,2-difluoroethoxy)-4,6-dimethoxy-pyrimidin-2-yl]-7-pyrazol-1-yl-1H-indole-3-sulfonamide] was 0.042 µM; that for `COc1nc(NS(=O)(=O)c2c[nH]c3c(-n4nccn4)cccc23)nc(OC)c1C1CC1C#N` (stereo not drawn) [Example 21, N-[5-(2-cyanocyclopropyl)-4,6-dimethoxy-pyrimidin-2-yl]-7-(triazol-2-yl)-1H-indole-3-sulfonamide] was 0.195 µM. As for `COc1nc(NS(=O)(=O)c2c[nH]c3c(-n4nccn4)c(Cl)c(F)cc23)nc(OC)c1OCC(F)F` [Example 64, 6-chloro-N-[5-(2,2-difluoroethoxy)-4,6-dimethoxy-pyrimidin-2-yl]-5-fluoro-7-(triazol-2-yl)-1H-indole-3-sulfonamide], the IC50 was 0.075 µM.

Regarding `COc1nc(NS(=O)(=O)c2c[nH]c3c(-n4cccn4)c(Br)ccc23)nc(OC)c1CC(F)F` [Example 81, 6-bromo-N-[5-(2,2-difluoroethyl)-4,6-dimethoxy-pyrimidin-2-yl]-7-pyrazol-1-yl-1H-indole-3-sulfonamide], the IC50 was 0.018 µM.

For the compound `COc1nc(NS(=O)(=O)c2c[nH]c3c(-n4cccn4)c(Cl)ccc23)nc(OC)c1OCC(F)F` [Example 65, 6-chloro-N-[5-(2,2-difluoroethoxy)-4,6-dimethoxy-pyrimidin-2-yl]-7-pyrazol-1-yl-1H-indole-3-sulfonamide], the IC50 was found to be 0.022 µM. In the case of `COc1nc(NS(=O)(=O)c2c[nH]c3c(-n4ccnc4)c(Cl)ccc23)ncc1CC(F)F` [Example 8, 6-chloro-N-[5-(2,2-difluoroethyl)-4-methoxy-pyrimidin-2-yl]-7-imidazol-1-yl-1H-indole-3-sulfonamide] it was 0.248 µM. Regarding `COc1nc(NS(=O)(=O)c2c[nH]c3c(-n4nccn4)cccc23)nc(OC)c1CC(F)F` [Example 13, N-[5-(2,2-difluoroethyl)-4,6-dimethoxy-pyrimidin-2-yl]-7-(triazol-2-yl)-1H-indole-3-sulfonamide], the IC50 is 0.203 µM. Consider `COc1nc(NS(=O)(=O)c2c[nH]c3c(-n4nccn4)c(C(F)F)ccc23)nc(OC)c1OCCF` [Example 41, 6-(difluoromethyl)-N-[5-(2-fluoroethoxy)-4,6-dimethoxy-pyrimidin-2-yl]-7-(triazol-2-yl)-1H-indole-3-sulfonamide], for which the IC50 was determined as 0.064 µM. In the case of `COc1nc(NS(=O)(=O)c2c[nH]c3c(-n4cccn4)c(Cl)ccc23)nc(OC)c1OC(F)F` [Example 66, 6-chloro-N-[5-(difluoromethoxy)-4,6-dimethoxy-pyrimidin-2-yl]-7-pyrazol-1-yl-1H-indole-3-sulfonamide], the IC50 turned out to be 0.021 µM.

Consider `COc1nc(NS(=O)(=O)c2c[nH]c3c(-n4ccc(F)n4)c(Cl)ccc23)nc(OC)c1OC(F)F` [Example 54, 6-chloro-N-[5-(difluoromethoxy)-4,6-dimethoxy-pyrimidin-2-yl]-7-(3-fluoropyrazol-1-yl)-1H-indole-3-sulfonamide], for which the IC50 came out at 0.027 µM. On to `COc1nc(NS(=O)(=O)c2c[nH]c3c(-n4cccn4)c(C)ccc23)nc(OC)c1OCCF` [Example 82, N-[5-(2-fluoroethoxy)-4,6-dimethoxy-pyrimidin-2-yl]-6-methyl-7-pyrazol-1-yl-1H-indole-3-sulfonamide], for which the IC50 turned out to be 0.068 µM. The value for `COc1nc(NS(=O)(=O)c2c[nH]c3c(-n4cccn4)c(C)ccc23)nc(OC)c1CC(F)F` [Example 80, N-[5-(2,2-difluoroethyl)-4,6-dimethoxy-pyrimidin-2-yl]-6-methyl-7-pyrazol-1-yl-1H-indole-3-sulfonamide] was 0.029 µM.
